target: T1, MAGL protein (Homo sapiens, UniProt Q99685); test: 2-AG assay: MAGL inhibitory activity by hydrolysis of 2-arachidonoylglycerol to arachidonic acid, followed by mass spectrometry; format: biochemical; conditions: 8 μM 2-arachidonoylglycerol, 15 min preincubation, 30 min reaction at RT, RapidFire MS readout
T1 sequence (Q99685 1-303): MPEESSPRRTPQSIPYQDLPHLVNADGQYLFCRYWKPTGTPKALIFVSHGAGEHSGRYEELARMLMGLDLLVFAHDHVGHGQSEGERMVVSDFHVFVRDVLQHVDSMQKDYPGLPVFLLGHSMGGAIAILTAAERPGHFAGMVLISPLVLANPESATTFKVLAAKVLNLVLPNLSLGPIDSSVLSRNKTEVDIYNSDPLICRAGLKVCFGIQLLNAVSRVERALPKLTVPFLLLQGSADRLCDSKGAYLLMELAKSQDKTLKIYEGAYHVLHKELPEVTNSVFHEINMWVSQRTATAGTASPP
Summary of the method: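 Activity was measured by RapidFire SPE–triple-quad MS as the ratio of arachidonic acid to d8-arachidonic acid after 2-AG hydrolysis (8 μM substrate, 30 min, RT, acetonitrile quench). Compounds, tested from 12.5 μM down to […], were first preincubated 15 min with MAGL in TRIS/EDTA/Tween-20 buffer containing 2.5% DMSO.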

Structure (SMILES) | IC50 [nM]
O=C(N1CC2(CC(Cc3ncc(F)cc3Cl)C2)C1)N1CC2(CC(c3ncn[nH]3)C2)C1 [compound 789] | 404
CS(=O)(=O)C1(c2ccc(C3CN(C(=O)N4CC5(CC(c6nc(C7(O)CC7)n[nH]6)C5)C4)C3)cc2)CC1 [compound 790] | 9.68
CS(=O)(=O)c1ccc(CC2CC3(C2)CN(C(=O)N2CC4(CC(c5nc(C(F)(F)F)n[nH]5)C4)C2)C3)cc1 [compound 791] | 17.6
O=C(N1CC2(CC(c3nc(C4CC4)n[nH]3)C2)C1)N1CC2(CN(Cc3nc[nH]c3C(F)(F)F)C2)C1 [compound 795] | 33.3
N#Cc1ccc(CC2CC3(C2)CN(C(=O)N2CC4(CC(c5nc(C6COC6)n[nH]5)C4)C2)C3)c(F)c1 [compound 797] | 9.31
O=C(N1CC2(CC(c3nc(C4CC4)n[nH]3)C2)C1)N1CC2(CN(Cc3cc[nH]n3)C2)C1 [compound 799] | 1330
CC(C)(C)Cc1nnc(C23CC(C4CN(C(=O)N5CC6(CC(c7nc(C8COC8)n[nH]7)C6)C5)C4)(C2)C3)s1 [compound 800] | 554
N#Cc1cnn(CC2CC3(C2)CN(C(=O)N2CC4(CC(c5nc(C6CC6)n[nH]5)C4)C2)C3)c1 [compound 801] | 8.16
O=C(N1CC2(CC(c3nc(C4CC4)n[nH]3)C2)C1)N1CC2(CCN(Cc3ccc(C(F)(F)F)nc3)C2)C1 [compound 804] | 7.16
O=C(N1CC2(CC(c3ccc(C(F)(F)F)nc3)C2)C1)N1CC2(CC(c3nc(C4CC4)n[nH]3)C2)C1 [compound 805] | 4.73
O=C(N1CC(C23CC(S(=O)(=O)c4ccc(C(F)(F)F)cn4)(C2)C3)C1)N1CC2(CC(c3nc(C4CC4)n[nH]3)C2)C1 [compound 807] | 478
O=C(N1CC2(CCC(Cc3ccc(C(F)(F)F)cn3)CC2)C1)N1CC2(CC(c3nc(C4COC4)n[nH]3)C2)C1 [compound 814] | 60.3
CS(=O)(=O)c1ccc(CC2CC3(C2)CN(C(=O)N2CC4(CC(c5nc(C6COC6)n[nH]5)C4)C2)C3)cc1 [compound 817] | 180
O=C(N1CC2(CC(Cc3ncc(F)cc3F)C2)C1)N1CC2(CC(c3nc(C(F)(F)F)n[nH]3)C2)C1 [compound 819] | 6.59
O=C(N1CC2(CC(Cc3ccc(C(F)(F)F)cn3)C2)C1)N1CC2(CC(c3nc(C4COC4)n[nH]3)C2)C1 [compound 824] | 10.3
CS(=O)(=O)c1cc(C(F)(F)F)ccc1CC1CC2(C1)CN(C(=O)N1CC3(CC(c4nc(C5COC5)n[nH]4)C3)C1)C2 [compound 827] | 21.2
O=C(N1CC2(CC(c3ccc(C(F)(F)F)nc3)C2)C1)N1CC2(CC(c3nc(C4(O)CC4)n[nH]3)C2)C1 [compound 829] | 38.4
N=S(=O)(c1ccc(CC2CC3(C2)CN(C(=O)N2CC4(CC(c5nc(C6COC6)n[nH]5)C4)C2)C3)cc1)C(F)(F)F (centres unmarked) [compound 830] | 36.5
O=C(N1CC2(CC(Cc3ccc(Cl)cn3)C2)C1)N1CC2(CC(c3ncn[nH]3)C2)C1 [compound 831] | 1220
Cn1ncc(P(C)(C)=O)c1CN1CC2(C1)CN(C(=O)N1CC3(CC(c4nc(C5CC5)n[nH]4)C3)C1)C2 [compound 838] | 102
Cc1nc(C)n(-c2ccc(C3CN(C(=O)N4CC5(CC(c6nnc(C7CC7)[nH]6)C5)C4)C3)cc2)n1 [compound 841] | 10.6
O=C(N1CC2(CC(c3nc(C4CC4)n[nH]3)C2)C1)N1CC2(CC(C(F)c3ccc(C(F)(F)F)nc3)C2)C1 (centres unmarked) [compound 845] | 9.83

These reach a lower IC50. Values come first.

IC50 [nM] | Structure (SMILES)
1.98 | O=C(N1CC2(CC(Cc3nnc(C4(C(F)(F)F)CC4)o3)C2)C1)N1CC2(CC(c3nc(C4(F)CC4)n[nH]3)C2)C1 [compound 792]
0.07 | O=C(N1CC2(CC(Cc3cc(C(F)(F)F)n(CC(F)(F)F)n3)C2)C1)N1CC2(CC(c3nc(C4CC4)n[nH]3)C2)C1 [compound 793]
1.03 | O=C(N1CC2(CC(Cc3noc(C(F)(F)F)n3)C2)C1)N1CC2(CC(c3nc(C4CC4)n[nH]3)C2)C1 [compound 794]
1.17 | O=C(N1CC2(CC(Cn3nccc3C(F)(F)F)C2)C1)N1CC2(CC(c3nc(C4(O)CC4)n[nH]3)C2)C1 [compound 796]
2.4 | O=C(N1CC(C23CC(C(F)(F)c4ccc(C(F)(F)F)cc4)(C2)C3)C1)N1CC2(CC(c3nc(C4CC4)n[nH]3)C2)C1 [compound 798]
1.39 | CS(=O)(=O)c1cc(C(F)(F)F)ccc1C1CC2(C1)CN(C(=O)N1CC3(CC(c4nnc(C5CC5)[nH]4)C3)C1)C2 [compound 803]
0.29 | N#Cc1cc(CC2CC3(C2)CN(C(=O)N2CC4(CC(c5nc(C6COC6)n[nH]5)C4)C2)C3)ccc1C(F)(F)F [compound 808]
0.34 | CS(=O)(=O)c1cc(CC2CC3(C2)CN(C(=O)N2CC4(CC(c5nc(C6CC6)n[nH]5)C4)C2)C3)cc(C(F)(F)F)c1 [compound 809]
1.14 | Cn1cc(CC2CC3(C2)CN(C(=O)N2CC4(CC(c5nc(C6(O)CC6)n[nH]5)C4)C2)C3)c(C(F)(F)F)n1 [compound 810]
0.18 | O=C(N1CC2(CC(Cc3ccc(S(=O)(=O)C(F)(F)F)cn3)C2)C1)N1CC2(CC(c3nc(C4CC4)n[nH]3)C2)C1 [compound 813]
0.6 | Cn1ncc(CC2CC3(C2)CN(C(=O)N2CC4(CC(c5nc(C6(O)CC6)n[nH]5)C4)C2)C3)c1C(F)(F)F [compound 815]
1.61 | O=C(N1CC2(CC(Cc3n[nH]c(C4(C(F)(F)F)CC4)n3)C2)C1)N1CC2(CC(c3nnc(C4CC4)[nH]3)C2)C1 [compound 816]
0.59 | Cc1cc(C(F)F)nn1CC1CC2(C1)CN(C(=O)N1CC3(CC(c4nc(C5CC5)n[nH]4)C3)C1)C2 [compound 818]
0.77 | Cc1cc(C(C)(C)C)nn1-c1ccc(C2CN(C(=O)N3CC4(CC(c5nc(C6(O)CC6)n[nH]5)C4)C3)C2)cc1 [compound 820]
2 | Cc1cc(C2CC2)nn1-c1ccc(C2CN(C(=O)N3CC4(CC(c5nc(C6(O)CC6)n[nH]5)C4)C3)C2)cc1 [compound 821]
0.88 | O=C(N1CC2(CC(Cn3ccc(C4CC4)n3)C2)C1)N1CC2(CC(c3nc(C4CC4)n[nH]3)C2)C1 [compound 822]
0.21 | Cn1cc(-c2ccc(C3CN(C(=O)N4CC5(CC(c6nc(C7(O)CC7)n[nH]6)C5)C4)C3)cc2)c(C(F)(F)F)n1 [compound 823]
4.37 | O=C(N1CC(C23CC(NCC4(C(F)(F)F)CC4)(C2)C3)C1)N1CC2(CC(c3nc(C4(O)CC4)n[nH]3)C2)C1 [compound 825]
0.56 | O=C(N1CC2(CC(c3nnc(C4CC4)[nH]3)C2)C1)N1CC2(CC(C(F)(F)c3ccc(C(F)(F)F)nc3)C2)C1 [compound 826]
0.39 | N#Cc1cc(CC2CC3(C2)CN(C(=O)N2CC4(CC(c5nnc(C6CC6)[nH]5)C4)C2)C3)cnc1C(F)(F)F [compound 833]
0.06 | Cn1cc(-c2ccc(C3CN(C(=O)N4CC5(CC(c6nnc(C7CC7)[nH]6)C5)C4)C3)cc2)c(C(F)(F)F)n1 [compound 834]
2.37 | O=C(N1CC2(CC(Cc3ccc(F)cc3F)C2)C1)N1CC2(CC(c3nc(C4COC4)n[nH]3)C2)C1 [compound 835]
0.27 | O=C(N1CC(c2ccc(-n3nc(C(F)F)cc3C3CC3)cc2)C1)N1CC2(CC(c3nnc(C4CC4)[nH]3)C2)C1 [compound 839]
1.07 | N#Cc1cc(C(F)(F)F)ncc1CC1CC2(C1)CN(C(=O)N1CC3(CC(c4nnc(C5CC5)[nH]4)C3)C1)C2 [compound 843]
0.71 | O=C(N1CC2(CC(Cn3ccc(C(F)(F)F)n3)C2)C1)N1CC2(CC(c3nc(C4CC4)n[nH]3)C2)C1 [compound 844]

— patent publication US20250099448A1, “HETEROCYCLIC COMPOUNDS” (Hoffmann-La Roche Inc., priority 2022, published 2025)
